What all share (test): biochemical
Holding throughout (set-up): KINOMEscan scanMAX competition binding, DNA-tagged kinases, qPCR read-out, percent control at 300 nM

The target in one test is IRAK1 (Homo sapiens, UniProt P51617).
The next test concerns the target T1, TEC (Homo sapiens, UniProt P42680).
T1 sequence (P42680 1-631): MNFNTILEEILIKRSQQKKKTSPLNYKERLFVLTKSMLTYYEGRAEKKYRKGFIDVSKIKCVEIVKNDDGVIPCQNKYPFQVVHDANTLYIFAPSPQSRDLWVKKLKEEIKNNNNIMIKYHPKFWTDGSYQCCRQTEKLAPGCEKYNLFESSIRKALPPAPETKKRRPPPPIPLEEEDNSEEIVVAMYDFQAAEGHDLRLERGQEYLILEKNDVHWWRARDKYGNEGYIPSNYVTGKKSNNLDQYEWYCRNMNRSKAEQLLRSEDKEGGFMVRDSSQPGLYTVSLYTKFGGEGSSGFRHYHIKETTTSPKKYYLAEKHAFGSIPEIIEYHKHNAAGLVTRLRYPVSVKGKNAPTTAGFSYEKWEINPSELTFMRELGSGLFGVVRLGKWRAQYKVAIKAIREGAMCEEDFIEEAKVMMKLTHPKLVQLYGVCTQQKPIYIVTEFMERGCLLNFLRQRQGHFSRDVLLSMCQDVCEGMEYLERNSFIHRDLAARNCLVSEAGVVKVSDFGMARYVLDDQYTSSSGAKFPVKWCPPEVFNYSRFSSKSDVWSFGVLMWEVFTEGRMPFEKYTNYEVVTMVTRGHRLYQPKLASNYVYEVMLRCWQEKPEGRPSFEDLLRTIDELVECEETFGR

The target of the next test is FGFR2 (Homo sapiens, UniProt P21802).
Another test addresses T2, FLT3 (Homo sapiens, UniProt P36888).
T2 sequence (P36888 1-993): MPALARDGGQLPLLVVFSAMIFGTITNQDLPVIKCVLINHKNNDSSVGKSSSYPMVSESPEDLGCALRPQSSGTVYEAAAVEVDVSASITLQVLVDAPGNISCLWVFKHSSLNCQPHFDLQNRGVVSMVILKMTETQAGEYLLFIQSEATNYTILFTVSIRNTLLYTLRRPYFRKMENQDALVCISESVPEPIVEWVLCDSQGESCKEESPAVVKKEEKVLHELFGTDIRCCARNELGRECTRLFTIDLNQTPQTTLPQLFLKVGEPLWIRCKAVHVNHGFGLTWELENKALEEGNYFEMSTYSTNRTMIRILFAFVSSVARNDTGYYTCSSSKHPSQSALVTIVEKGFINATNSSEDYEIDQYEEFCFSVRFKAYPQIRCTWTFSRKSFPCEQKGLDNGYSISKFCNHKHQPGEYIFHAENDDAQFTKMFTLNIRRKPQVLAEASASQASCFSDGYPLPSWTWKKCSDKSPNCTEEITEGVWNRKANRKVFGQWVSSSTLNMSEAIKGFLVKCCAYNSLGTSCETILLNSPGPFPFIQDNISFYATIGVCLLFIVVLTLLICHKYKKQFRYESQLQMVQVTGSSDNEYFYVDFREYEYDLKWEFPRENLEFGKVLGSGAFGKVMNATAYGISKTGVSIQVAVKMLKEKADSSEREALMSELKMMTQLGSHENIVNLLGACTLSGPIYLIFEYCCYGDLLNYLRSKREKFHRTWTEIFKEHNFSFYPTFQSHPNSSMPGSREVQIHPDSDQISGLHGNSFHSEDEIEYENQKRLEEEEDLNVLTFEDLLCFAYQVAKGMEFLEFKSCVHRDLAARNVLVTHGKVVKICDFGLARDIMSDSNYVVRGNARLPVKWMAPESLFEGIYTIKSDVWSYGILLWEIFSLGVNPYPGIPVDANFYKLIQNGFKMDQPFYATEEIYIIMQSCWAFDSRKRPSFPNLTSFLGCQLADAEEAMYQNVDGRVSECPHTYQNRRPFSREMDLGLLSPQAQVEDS

The next test concerns the target T3, IRAK3 (Homo sapiens, UniProt Q9Y616).
T3 sequence (Q9Y616 1-596): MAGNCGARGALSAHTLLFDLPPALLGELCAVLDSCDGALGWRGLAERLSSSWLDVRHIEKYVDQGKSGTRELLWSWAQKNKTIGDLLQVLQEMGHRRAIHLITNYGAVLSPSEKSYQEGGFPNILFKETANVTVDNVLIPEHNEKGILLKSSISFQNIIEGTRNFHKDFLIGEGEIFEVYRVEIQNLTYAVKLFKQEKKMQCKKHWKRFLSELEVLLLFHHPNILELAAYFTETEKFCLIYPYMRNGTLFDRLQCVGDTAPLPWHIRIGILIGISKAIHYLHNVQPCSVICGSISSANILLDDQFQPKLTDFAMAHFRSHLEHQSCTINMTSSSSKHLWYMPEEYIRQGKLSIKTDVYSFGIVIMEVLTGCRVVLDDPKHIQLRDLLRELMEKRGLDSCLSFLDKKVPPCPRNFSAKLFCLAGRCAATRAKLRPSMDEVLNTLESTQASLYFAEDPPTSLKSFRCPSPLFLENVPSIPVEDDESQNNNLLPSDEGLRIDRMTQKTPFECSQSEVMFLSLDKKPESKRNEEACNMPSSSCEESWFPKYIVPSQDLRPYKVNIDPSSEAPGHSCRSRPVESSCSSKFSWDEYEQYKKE

Setting [1] is: read-out: Percent control / Acalabrutinib.
[2] abbreviates: read-out: Percent control / Ibrutinib.
The mark [3] stands for this setting: read-out: Percent control / Tirabrutinib.
The mark [4] stands for this setting: read-out: Percent control / Zanubrutinib.

SMILES strings stand for the structures. Where two headings read alike, the source gives them in different places.

Sequence of FGFR2 (P21802 whole entry): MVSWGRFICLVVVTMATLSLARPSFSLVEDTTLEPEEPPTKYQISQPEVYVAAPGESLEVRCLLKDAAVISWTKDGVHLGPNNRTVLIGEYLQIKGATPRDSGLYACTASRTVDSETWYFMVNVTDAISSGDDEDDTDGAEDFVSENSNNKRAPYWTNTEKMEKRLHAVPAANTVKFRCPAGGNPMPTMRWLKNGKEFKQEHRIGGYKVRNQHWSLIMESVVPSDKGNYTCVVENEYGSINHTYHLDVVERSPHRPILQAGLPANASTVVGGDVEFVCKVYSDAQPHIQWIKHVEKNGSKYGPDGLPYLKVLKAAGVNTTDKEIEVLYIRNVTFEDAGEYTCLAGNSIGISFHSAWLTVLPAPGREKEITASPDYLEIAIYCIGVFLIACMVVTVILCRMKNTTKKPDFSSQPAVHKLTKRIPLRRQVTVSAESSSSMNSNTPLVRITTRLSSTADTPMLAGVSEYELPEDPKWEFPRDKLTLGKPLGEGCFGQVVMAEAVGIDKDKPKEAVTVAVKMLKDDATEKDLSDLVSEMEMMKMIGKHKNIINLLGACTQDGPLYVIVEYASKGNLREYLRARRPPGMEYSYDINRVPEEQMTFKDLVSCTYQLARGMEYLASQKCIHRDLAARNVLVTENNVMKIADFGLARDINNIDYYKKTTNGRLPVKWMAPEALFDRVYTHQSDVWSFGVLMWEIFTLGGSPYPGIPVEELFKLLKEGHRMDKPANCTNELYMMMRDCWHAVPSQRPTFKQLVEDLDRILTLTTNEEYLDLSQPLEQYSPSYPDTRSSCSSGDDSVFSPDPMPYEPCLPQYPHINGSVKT
Sequence of IRAK1 (P51617 whole entry): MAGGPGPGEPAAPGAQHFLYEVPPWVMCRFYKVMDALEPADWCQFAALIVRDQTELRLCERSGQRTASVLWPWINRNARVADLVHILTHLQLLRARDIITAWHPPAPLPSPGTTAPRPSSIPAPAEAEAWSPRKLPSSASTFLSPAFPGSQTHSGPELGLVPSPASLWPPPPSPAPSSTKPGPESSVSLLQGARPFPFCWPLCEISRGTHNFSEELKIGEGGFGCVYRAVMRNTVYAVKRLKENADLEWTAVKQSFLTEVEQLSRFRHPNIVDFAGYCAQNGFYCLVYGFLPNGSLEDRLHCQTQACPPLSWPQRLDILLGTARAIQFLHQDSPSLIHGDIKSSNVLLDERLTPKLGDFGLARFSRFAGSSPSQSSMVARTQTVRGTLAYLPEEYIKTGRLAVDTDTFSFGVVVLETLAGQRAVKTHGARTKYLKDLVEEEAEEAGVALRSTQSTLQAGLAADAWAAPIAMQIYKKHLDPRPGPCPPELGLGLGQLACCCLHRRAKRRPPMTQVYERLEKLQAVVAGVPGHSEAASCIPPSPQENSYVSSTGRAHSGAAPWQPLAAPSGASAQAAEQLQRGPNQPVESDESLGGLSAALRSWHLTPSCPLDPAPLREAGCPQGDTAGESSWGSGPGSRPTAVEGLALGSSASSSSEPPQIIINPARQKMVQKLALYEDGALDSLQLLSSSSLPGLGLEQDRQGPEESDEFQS

Regarding `CC#CC(=O)N1CCC[C@H]1c1nc(-c2ccc(C(=O)Nc3ccccn3)cc2)c2c(N)nccn12` [Acalabrutinib], the remaining binding at 0.3 µM was 90% on IRAK1 (setting [1]); 4.1% at TEC (setting [1]); 88% on FGFR2 (setting [1]); 86% on FLT3 (setting [1]); 86% on IRAK3 (setting [1]).

Consider `C=CC(=O)N1CCC[C@@H](n2nc(-c3ccc(Oc4ccccc4)cc3)c3c(N)ncnc32)C1` [Ibrutinib], for which the remaining binding at 0.3 µM on IRAK1 (setting [2]) is 89%; on TEC (setting [2]), 6%; on FGFR2 (setting [2]) it was 65%; at FLT3 (setting [2]) it was 47%; on IRAK3 (setting [2]), 86%.

Turning to `CC#CC(=O)N1CC[C@@H](n2c(=O)n(-c3ccc(Oc4ccccc4)cc3)c3c(N)ncnc32)C1` [Tirabrutinib], the remaining binding at 0.3 µM at TEC (setting [3]) worked out at 7.8%; at FLT3 (setting [3]) it was 98%; at IRAK3 (setting [3]), 80%.

Turning to `C=CC(=O)N1CCC([C@@H]2CCNc3c(C(N)=O)c(-c4ccc(Oc5ccccc5)cc4)nn32)CC1` [Zanubrutinib], the remaining binding at 0.3 µM came out at 100% on IRAK1 (setting [4]); 20% on TEC (setting [4]); 93% at FGFR2 (setting [4]); 90% on FLT3 (setting [4]); 91% on IRAK3 (setting [4]).

Values taken from PMC10004634 (PLOS ONE, 2023).
